Reference: PMC11306024, “Novel metabolite madeirone and neomarinone extracted from Streptomyces aculeoletus as marine antibiofilm and antifouling agents” (Frontiers in Chemistry, 2024)

Tests used:
[1] = system: M. hydrocarbonoclasticus; experiment: Antibacterial activity (growth inhibition, OD600); format: cell-based, Marinobacter hydrocarbonoclasticus DSM 8798; conditions: 24 h
Procedure: (§1) To assess antimicrofouling activity, we selected five marine bacterial species as models: Marinobacter hydrocarbonoclasticus DSM 8798 (ATCC 49840), C. marina DSM 4741, Phaeobacter inhibens DSM 17,395, Pseusooceanicola batsensis DSM 15,984, and Micrococcus luteus DSM 20030 (ATCC 4698) ([Michael et al., 2016]). These strains, sourced from DSMZ (Leibniz Institute DSMZ—German Collection of Microorganisms and Cell Cultures), were cultured in liquid marine broth (Carl Roth GmbH, Karlsruhe, Germany) with agitation at 180 rpm or on agar-supplemented marine broth. Incubation temperatures were set at 28°C for M. hydrocarbonoclasticus and Cobetia marina, 30°C for P. inhibens and P. batsensis, while M. luteus was maintained at 37°C in Brain Heart Infusion broth (BHI, Becton Dickinson, GmbH, Heidelberg, Germany) under similar agitation conditions.
(§2) The antibacterial efficacy of compounds (1) and (2) was assessed in 96-well polystyrene flat-bottom microplates (Nunclon Delta Surface, Thermo Scientific, Roskilde, Denmark) following established procedures ([Bauermeister et al., 2019]). In the initial screening, bacterial overnight cultures were diluted to an optical density (OD600nm) of 0.2 and incubated statically at appropriate temperatures. The cultures were treated with the following final concentrations per well: 31.25, 15.60, 7.81, 3.91, 1.95, and 0.98 μg/mL (2-fold serial dilutions) of the compounds, solubilized in DMSO, or left untreated. After 24 h (M. hydrocarbonoclasticus, C. marina) or 48 h (P. batsensis, P. inhibens, M. luteus) incubation, optical density at 600 nm (OD600) was measured using a Molecular Devices Spectra Max 190. Growth inhibition percentages were calculated relatively to untreated bacterial species, using DMSO as a negative control. CuSO4 (0.16 μg/mL), a recognized antifouling agent, was used as positive control. All assays were conducted in triplicate, and the results represent the mean and standard error of the mean (SEM). Statistical analysis was carried out using GraphPad Prism 8.0.2 (San Diego, CA, United States), employing one-way ANOVA followed by Dunnett’s multiple comparisons test against the negative control.

[2] = system: C. marina; experiment: Antibacterial activity (growth inhibition, OD600); format: cell-based, Cobetia marina DSM 4741; conditions: 24 h; for inhibition at 15.6 µg/mL: 15.60 µg/mL
Procedure: as §1, §2

[3] = system: P. inhibens; experiment: Antibiofilm activity (inhibition of biofilm formation); format: cell-based, Phaeobacter inhibens DSM 17395; conditions: for Biofilm inhibition, up to (highest over tested concentrations) P. inhibens: 0.98-31.25 µg/mL tested; for inhibition at 15.6 µg/mL: 15.60 µg/mL
Procedure: as §1
(§3) The antibiofilm potential of compounds (1) and (2) against the five marine bacterial species was investigated in 96-well polystyrene flat-bottom microplates (Nunclon Delta Surface, Thermo Scientific, Roskilde, Denmark), as described previously ([Bauermeister et al., 2019]; [Pereira et al., 2020]). In the initial screening, bacterial overnight cultures were diluted to an OD600 of 0.2 and incubated statically at appropriate temperatures. The cultures were tested at 31.25, 15.60, 7.81, 3.91, 1.95, 0.98 μg/mL concentrations (2-fold serial dilutions) of compounds (1) and (2), solubilized in DMSO, or left untreated. After 24 h (M. hydrocarbonoclasticus, C. marina) or 48 h (P. batsensis, P. inhibens, M. luteus) incubation, OD600 was measured. The planktonic cells and media were discarded, and the wells were washed twice with deionized water. Biofilms were fixed, stained, and quantified by measuring the OD600 after solubilization with acetic acid. Biofilm inhibition percentages were calculated relative to untreated bacterial species, using DMSO as a negative control and CuSO4 (0.16 μg/mL), as a positive control. All assays were performed in triplicate, and the results represent the mean and standard error of the mean (SEM). Statistical analysis was conducted using GraphPad Prism 8.0.2, employing one-way ANOVA followed by Dunnett’s multiple comparisons test against the negative control.

[4] = system: P. batsensis; experiment: as above; format: cell-based, Pseudo-oceanicola batsensis DSM 15984; conditions: for inhibition at 0.98 µg/mL / inhibition at 1.95 µg/mL / inhibition at 3.91 µg/mL / inhibition at 7.81 µg/mL / inhibition at 15.6 µg/mL / inhibition at 31.25 µg/mL: 48 h; for inhibition at 15.6 µg/mL: 15.60 µg/mL
Procedure: as §1, §3

[5] = system: M. hydrocarbonoclasticus; experiment: as above; format: cell-based, Marinobacter hydrocarbonoclasticus DSM 8798; conditions: for Biofilm inhibition, up to (highest over tested concentrations) M. hydrocarbonoclasticus: 0.98-31.25 µg/mL tested; for inhibition at 15.6 µg/mL: 15.60 µg/mL
Procedure: as §1, §3

[6] = system: C. marina; experiment: as above; format: cell-based, Cobetia marina DSM 4741; conditions: for Biofilm inhibition, up to (highest over tested concentrations) C. marina: 0.98-31.25 µg/mL tested; for inhibition at 0.98 µg/mL / inhibition at 1.95 µg/mL / inhibition at 3.91 µg/mL / inhibition at 7.81 µg/mL / inhibition at 15.6 µg/mL / inhibition at 31.25 µg/mL: Cobetia marina, 24 h; for inhibition at 15.6 µg/mL: 15.60 µg/mL
Procedure: as §1, §3

[7] = system: Pseudokirchneriella subcapitata; experiment: Algal growth inhibition test (OECD 201); format: cell-based
Procedure: The in vivo evaluation of compounds (1) and (2) for acute toxicity was performed towards marine bacterium Aliivibrio fischeri, and planktonic crustacean Daphnia magna. The chronic ecotoxicity tests were evaluated using algae Pseudokirchneriella subcapitata and Phaeodactylum tricornutum.
Freshwater and marine algal growth inhibition was assessed using P. subcapitata and P. tricornutum according to OECD Guideline 201 procedures (“Alga, Growth Inhibition Test”), ISO-8692 (“Water quality–Fresh water algal growth inhibition test with unicellular green algae”) and ISO-10253. Briefly, the algae cells were de-immobilized from algal beads using Matrix dissolving medium (Microbiotests), according to the manufacturer’s instructions, and grown in flasks containing algal culturing medium which was prepared following the OECD Guideline 201 and ISO-8692. Flasks with algae were kept for 7 days under light with orbital agitation. When the algae culture had sufficient cells, as verified by the optical density at 670 nm, these were tested at an initial cell density of 1 × 10^6 cells/mL in algal culturing medium. Madeirone (1) and neomarinone (2) were dissolved in DMSO and tested at the concentrations of 100, 50, 25, 12.5, 6.25, 3.13, and 1.56 μg/mL. The algae were cultured in microplates in triplicate and were kept for 4 days under light with orbital agitation. […] Each experiment was performed in triplicate and the results of two independent experiments with <10% SD are presented. Growth inhibition calculations were performed using cell numbers (biomass), as determined by a calibration line. Potassium dichromate (K2Cr2O7) was used as a positive control.

CC1=CCC[C@@H](C)[C@]1(C)CC[C@@]1(C)c2c(O)cc3c(c2O[C@@H]1C)C(=O)C=C(CO)C3=O (relative stereo) [compound 1, madeirone]
Growth inhibition (%) M. hydrocarbonoclasticus ([1]; 0.98 µg/mL): N.I.
Growth inhibition (%) M. hydrocarbonoclasticus ([1]; 1.95 µg/mL): N.I.
Growth inhibition (%) M. hydrocarbonoclasticus ([1]; 3.91 µg/mL): N.I.
Growth inhibition (%) M. hydrocarbonoclasticus ([1]; 7.81 µg/mL): N.I.
Growth inhibition (%) M. hydrocarbonoclasticus ([1]; 15.60 µg/mL): N.I.
Growth inhibition (%) M. hydrocarbonoclasticus ([1]; 31.25 µg/mL): N.I.
Growth inhibition (%) C. marina ([2]; 0.98 µg/mL): N.I.
Growth inhibition (%) C. marina ([2]; 1.95 µg/mL): N.I.
Growth inhibition (%) C. marina ([2]; 3.91 µg/mL): N.I.
inhibition at 7.81 µg/mL ([2]; Cobetia marina): 10 ± 2.1%
inhibition at 15.6 µg/mL ([2]; Cobetia marina): 7.7 ± 4%
inhibition at 31.25 µg/mL ([2]; Cobetia marina): 12.7 ± 2.7%
Biofilm inhibition (%) P. inhibens ([3]; 0.98 µg/mL, 48 h): N.I.
Biofilm inhibition (%) P. inhibens ([3]; 1.95 µg/mL, 48 h): N.I.
Biofilm inhibition, up to (highest over tested concentrations) P. inhibens [3]: up to 66%
inhibition at 3.91 µg/mL ([3]; Phaeobacter inhibens, 3.91 µg/mL, 48 h): 10.2 ± 3.7%
inhibition at 7.81 µg/mL ([3]; Phaeobacter inhibens, 48 h): 33.9 ± 1.3%
inhibition at 15.6 µg/mL ([3]; Phaeobacter inhibens, 48 h): 53 ± 1%
inhibition at 31.25 µg/mL ([3]; Phaeobacter inhibens, 48 h): 66.7 ± 0.3%
inhibition at 0.98 µg/mL [4]: 10.8 ± 1.7%
inhibition at 1.95 µg/mL [4]: 17.9 ± 2.4%
inhibition at 3.91 µg/mL [4]: 24.9 ± 2.9%
inhibition at 7.81 µg/mL [4]: 34.8 ± 2.7%
inhibition at 15.6 µg/mL [4]: 49.1 ± 0.7%
inhibition at 31.25 µg/mL [4]: 59.2 ± 0.4%
Biofilm inhibition (%) M. hydrocarbonoclasticus ([5]; 0.98 µg/mL, 24 h): N.I.
Biofilm inhibition (%) M. hydrocarbonoclasticus ([5]; 1.95 µg/mL, 24 h): N.I.
Biofilm inhibition (%) M. hydrocarbonoclasticus ([5]; 3.91 µg/mL, 24 h): N.I.
Biofilm inhibition, up to (highest over tested concentrations) M. hydrocarbonoclasticus [5]: up to 60%
inhibition at 7.81 µg/mL ([5]; Marinobacter nauticus, 24 h): 14.2 ± 3.6%
inhibition at 15.6 µg/mL ([5]; Marinobacter nauticus, 24 h): 33.9 ± 2.1%
inhibition at 31.25 µg/mL ([5]; Marinobacter nauticus, 24 h): 60.1 ± 0.5%
Biofilm inhibition, up to (highest over tested concentrations) C. marina [6]: up to 40%
inhibition at 0.98 µg/mL [6]: 28.6 ± 23.2%
inhibition at 1.95 µg/mL [6]: 31.6 ± 15.3%
inhibition at 3.91 µg/mL [6]: 36.3 ± 6.4%
inhibition at 7.81 µg/mL [6]: 39.2 ± 5.4%
inhibition at 15.6 µg/mL [6]: 41.7 ± 10%
inhibition at 31.25 µg/mL [6]: 31 ± 9.6%
Inhibition (%) P. subcapitata (growth) ([7]; 25 µg/mL): 9.1%
Inhibition (%) P. subcapitata (growth) ([7]; 50 µg/mL): 27.3%
Inhibition (%) P. subcapitata (growth) ([7]; 100 µg/mL): 52.8%

CC1=CCC[C@@H](C)[C@]1(C)CC[C@@]1(C)c2c(O)cc3c(c2O[C@@H]1C)C(=O)C(C)=C(O)C3=O [compound 2, neomarinone]
Growth inhibition (%) M. hydrocarbonoclasticus ([1]; 0.98 µg/mL): N.I.
Growth inhibition (%) M. hydrocarbonoclasticus ([1]; 1.95 µg/mL): N.I.
Growth inhibition (%) M. hydrocarbonoclasticus ([1]; 3.91 µg/mL): N.I.
Growth inhibition (%) M. hydrocarbonoclasticus ([1]; 7.81 µg/mL): N.I.
Growth inhibition (%) M. hydrocarbonoclasticus ([1]; 15.60 µg/mL): N.I.
inhibition at 31.25 µg/mL ([1]; Marinobacter nauticus, 31.25 µg/mL): 4.2 ± 0.8%
inhibition at 0.98 µg/mL ([2]; Cobetia marina, 0.98 µg/mL): 10.7 ± 2.2%
inhibition at 1.95 µg/mL ([2]; Cobetia marina, 1.95 µg/mL): 10.8 ± 3.1%
inhibition at 3.91 µg/mL ([2]; Cobetia marina, 3.91 µg/mL): 6.5 ± 1.2%
inhibition at 7.81 µg/mL ([2]; Cobetia marina): 9.2 ± 2.1%
inhibition at 15.6 µg/mL ([2]; Cobetia marina): 7.2 ± 2.9%
inhibition at 31.25 µg/mL ([2]; Cobetia marina): 1.1 ± 2%
Biofilm inhibition (%) P. inhibens ([3]; 0.98 µg/mL, 48 h): N.I.
Biofilm inhibition (%) P. inhibens ([3]; 1.95 µg/mL, 48 h): N.I.
Biofilm inhibition (%) P. inhibens ([3]; 3.91 µg/mL, 48 h): N.I.
Biofilm inhibition, up to (highest over tested concentrations) P. inhibens [3]: up to 41%
inhibition at 7.81 µg/mL ([3]; Phaeobacter inhibens, 48 h): 11.6 ± 1.8%
inhibition at 15.6 µg/mL ([3]; Phaeobacter inhibens, 48 h): 30 ± 0.6%
inhibition at 31.25 µg/mL ([3]; Phaeobacter inhibens, 48 h): 41.3 ± 0.9%
inhibition at 0.98 µg/mL [4]: 11.7 ± 6.2%
inhibition at 1.95 µg/mL [4]: 13.9 ± 5.7%
inhibition at 3.91 µg/mL [4]: 19.4 ± 4%
inhibition at 7.81 µg/mL [4]: 26.3 ± 5.9%
inhibition at 15.6 µg/mL [4]: 34.9 ± 4.8%
inhibition at 31.25 µg/mL [4]: 40.7 ± 4.7%
Biofilm inhibition, up to (highest over tested concentrations) P. batsensis ([4]; 0.98-31.25 µg/mL tested): up to 40%
Biofilm inhibition, up to (highest over tested concentrations) M. hydrocarbonoclasticus [5]: ≤ 56%
inhibition at 0.98 µg/mL ([5]; Marinobacter nauticus, 0.98 µg/mL, 24 h): 49.2 ± 6.2%
inhibition at 1.95 µg/mL ([5]; Marinobacter nauticus, 1.95 µg/mL, 24 h): 58.1 ± 1.6%
inhibition at 3.91 µg/mL ([5]; Marinobacter nauticus, 3.91 µg/mL, 24 h): 54.5 ± 3.6%
inhibition at 7.81 µg/mL ([5]; Marinobacter nauticus, 24 h): 54.4 ± 1.8%
inhibition at 15.6 µg/mL ([5]; Marinobacter nauticus, 24 h): 56.7 ± 1.5%
inhibition at 31.25 µg/mL ([5]; Marinobacter nauticus, 24 h): 29 ± 10.1%
Biofilm inhibition, up to (highest over tested concentrations) C. marina [6]: ≤ 46%
inhibition at 0.98 µg/mL [6]: 26.5 ± 3.8%
inhibition at 1.95 µg/mL [6]: 24.5 ± 3%
inhibition at 3.91 µg/mL [6]: 26.9 ± 3.3%
inhibition at 7.81 µg/mL [6]: 34.4 ± 7.4%
inhibition at 15.6 µg/mL [6]: 42.6 ± 6.3%
inhibition at 31.25 µg/mL [6]: 45.8 ± 2.9%
Inhibition (%) P. subcapitata (growth) ([7]; 50 µg/mL): 9.7%
Inhibition (%) P. subcapitata (growth) ([7]; 100 µg/mL): 26.2%
